Results reported in PMC11093748, “De novo identification of CD4^+ T cell epitopes” (Nature Methods, 2024).

Experiments:
BDC2.5 TCR = assay: I-Ag7 SABR-II library screen, enrichment score; assay type: cell-based, mouse; details: I-Ag7 library
Excerpt: We then asked whether SABR-IIs could be used to present a library of epitopes for CD4^+ T cell antigen discovery. To that end, we constructed a SABR-II library to present epitopes derived from pancreatic islets in I-Ag7 by curating a list of 4,075 published epitopes from the Immune Epitope Database (iedb.org)[50] and a study by Wan et al.[51] (Supplementary Table 1). Of note, this defined library consisted of unmodified epitopes from endogenous proteins, synthetic mimotopes, deamidated epitopes and hybrid insulin peptides (HIPs) that arise from post-translational fusion and are not genetically encoded in vivo[52],[53]. The epitope library was inserted into the I-Ag7 SABR-II backbone through pooled oligonucleotide synthesis, amplification and ligation-free cloning (Extended Data Fig. 3a). The I-Ag7 SABR-II-library was then expressed in NFAT–GFP Jurkat cells. We confirmed that after sequencing, the library accounted for a mean of 708 reads per epitope (Extended Data Fig. 3b). As a proof of concept, we performed co-incubation assays with Jurkat cells expressing the BDC2.5 TCR and sorted the top 1–2% of GFP^+CD69^+ cells at a rate of ~20 min per replicate with three replicates per TCR. We extracted the genomic DNA from sorted cells, amplified the SABR portion of the integrated proviruses and subjected the amplicons to Illumina sequencing (Extended Data Fig. 3c,d). The 1–2% sort gate represents >50-fold enrichment of cognate epitopes with minimal loss of signal (Extended Data Fig. 3e–h). Sequence reads were aligned to the I-Ag7 SABR-II backbone and the corresponding epitopes were scored based on their read counts. For each TCR under investigation, an enrichment score (ES) was determined for all the epitopes in a library. In each experiment, three replicates of a sort with TCR-expressing Jurkat cells were performed and reads were counted post-sequencing. In addition, three replicates of the unsorted library were also sequenced. A linear regression model was built using the unsorted library counts and used to determine the expected abundance of each epitope in the library. The ES was calculated based on the difference between the measured and the expected abundance of each epitope on a per-TCR basis (Fig. 1e). Based on ES values, two quantitative thresholds were used to determine putative cognate epitopes of a given TCR. A high-confidence zone containing clear outliers with a high ES and a low-confidence zone containing weak outliers with a moderately high ES were determined (Fig. 1e). This two-tiered strategy was used to call putative hits from screens. All the top-scoring epitopes for the BDC2.5 TCR were known BDC2.5 ligands containing the WXRM(D/E) motif (Fig. 1f,g, enriched ligands in red), a well-characterized trait of the BDC2.5 TCR[43],[54]–[56]. Across several independent experiments there was limited variation in ES values for the same TCRs and several epitopes fell into high- or low-confidence zones consistently (Extended Data Fig. 4a). Using a different TCR that was isolated from NOD mice, 4-8Ins[57], which recognized the InsB9:23 epitope ([…]), we observed a similar pattern of ES for cognate epitopes (Extended Data Fig. 4b).
For SABR library screens, 3 × 10^6 NFAT–GFP Jurkat cells expressing the SABR library were labeled with CellTrace Violet (BioLegend) according to the manufacturer’s protocol before incubation with 3 × 10^6 Jurkat cells expressing the TCR of interest. These mixtures were incubated in a six-well plate for 16–20 h. Cells were stained with anti-CD69-APC-Cy7 where indicated (BioLegend) and the top 1–2% of GFP^+CD69^+ cells were sorted for genomic DNA extraction, indexing and sequencing (see below). Multiplexed assays were scaled on a per-TCR basis (for example 3 × 10^6 for each of three TCRs against 9 × 10^6 library cells). […]

TCR5 = assay: Single SABR-II co-incubation, NFAT-GFP Jurkat; assay type: cell-based, mouse; details: TCR 5, Ext. Data Fig. 6C, 18-20 hr
Excerpt: (§1) We performed systematic screening of the cloned TCRs against the I-Ag7 SABR-II library. Several TCRs along with a positive control (such as BDC2.5 or 4-8Ins) were screened individually against the library for each sort (Extended Data Fig. 6a and Supplementary Table 4). High- and low-confidence ES zones for each screened TCR were defined by the ES values of the control TCR’s cognate epitopes. For all putative cognate epitopes, single SABR-IIs were constructed, expressed in NFAT–GFP Jurkat cells and used for co-incubation with the corresponding TCRs. Co-incubation assays that yielded a GFP signal higher than that obtained in assays with no TCR were determined to be positive and the epitopes deemed true cognate ligands (Extended Data Fig. 6b,c). Using this strategy, we obtained epitopes in the high-confidence zone for eight TCRs (Fig. 3a and Extended Data Fig. 6b,d). Among numerous altered peptide ligands (APLs), these TCRs recognized the physiological InsC-ChgA HIP ([…] and analogs, recognized by TCR5, TCR6B, TCR9 and TCR34), InsC-Iapp HIP ([…] and analogs, recognized by TCR4 and TCR15) and InsB9:23 ([…] and analogs recognized by TCR24 and TCR37). These cognate high-confidence hits were validated using single SABR-II co-incubation assays (Fig. 3b and Extended Data Fig. 7a). Further validations using in vitro mouse interleukin-2 (mIL-2) secretion by TCR-expressing 5KC reporter cells[13] or CD25 expression by TCR-expressing splenic CD4^+ T cells upon stimulation with the cognate epitope were performed (Extended Data Fig. 7b,c). Furthermore, low-confidence hits were called for ten TCRs and tested in co-incubation assays.
(§2) For SABR library screens, 3 × 10^6 NFAT–GFP Jurkat cells expressing the SABR library were labeled with CellTrace Violet (BioLegend) according to the manufacturer’s protocol before incubation with 3 × 10^6 Jurkat cells expressing the TCR of interest. These mixtures were incubated in a six-well plate for 16–20 h. Cells were stained with anti-CD69-APC-Cy7 where indicated (BioLegend) and the top 1–2% of GFP^+CD69^+ cells were sorted for genomic DNA extraction, indexing and sequencing (see below). Multiplexed assays were scaled on a per-TCR basis (for example 3 × 10^6 for each of three TCRs against 9 × 10^6 library cells). For single SABR assays, unless otherwise defined, 5 × 10^5 SABR expressing NFAT–GFP Jurkat cells (or 5KC cells) were labeled with CellTrace Violet (BioLegend) according to the manufacturer’s protocol before incubation with 5 × 10^5 TCR-expressing Jurkat cells (or 5KC cells) in a round-bottom 96-well plate for 16–20 h. Cells were stained with anti-CD69-APC-Cy7 when indicated and acquired on the Attune NxT flow cytometer (Thermo Fisher Scientific). All flow analysis was performed using FlowJo (BD). For Daudi cell co-culture, 1 × 10^6 Jurkat cells expressing the TCR of interest were incubated with 1 × 10^6 Daudi cells expressing a SABR of interest for 3 days. On day 3, cells were labeled with anti-RT1B-PE and anti-Fas-APC-Cy7 before being acquired on the Attune NxT flow cytometer.

Jurkat cells, No TCR = assay: Single SABR-II co-incubation, background without TCR; assay type: cell-based, human; details: No TCR, Ext. Data Fig. 6C, 18-20 hr
Excerpt: as §1, §2

TCR4 = assay: Single SABR-II co-incubation, NFAT-GFP Jurkat; assay type: cell-based, mouse; details: TCR 4, Ext. Data Fig. 6C, 18-20 hr
Excerpt: as §1, §2

[1] = EXPT1 of 8 biological experiments

Row | Sequence | Enrichment score (BDC2.5 TCR; [1]) | Enrichment score (BDC2.5 TCR; EXPT2 of 8) | Enrichment score (BDC2.5 TCR; EXPT3 of 8) | Enrichment score (BDC2.5 TCR; EXPT4 of 8) | Enrichment score (BDC2.5 TCR; EXPT5 of 8) | Enrichment score (BDC2.5 TCR; EXPT6 of 8) | Enrichment score (BDC2.5 TCR; EXPT7 of 8) | Enrichment score (BDC2.5 TCR; EXPT8 of 8) | %GFP+CD69+ cells of SABR-NFAT-GFP-Jurkat cells (TCR5; technical replicate 1) | %GFP+CD69+ cells of SABR-NFAT-GFP-Jurkat cells (TCR5; technical replicate 2) | %GFP+CD69+ cells of SABR-NFAT-GFP-Jurkat cells (Jurkat cells, No TCR; technical replicate 1) | %GFP+CD69+ cells of SABR-NFAT-GFP-Jurkat cells (Jurkat cells, No TCR; technical replicate 2) | %GFP+CD69+ cells of SABR-NFAT-GFP-Jurkat cells (TCR4; technical replicate 1) | %GFP+CD69+ cells of SABR-NFAT-GFP-Jurkat cells (TCR4; technical replicate 2)
1 | AVRPLWVRMEA [top putative hit of BDC2.5 TCR in I-Ag7 library] | 0.000756 | 0.000652 | 0.000955 | 0.000753 | 0.000651 | 0.00121 | 0.001291 | 0.000826 | – | – | – | – | – | –
2 | EKAHHAIWARMDAKK | – | – | – | – | – | – | – | – | 38% | 39.6% | 0.95% | 0.84% | – | –
3 | RVRPLWVRME [top putative hit of BDC2.5 TCR in I-Ag7 library] | 0.001251 | 0.001157 | 0.001581 | 0.000795 | 0.001224 | 0.001618 | 0.001744 | 0.001586 | – | – | – | – | – | –
4 | AAVRPLWVRMEAA [top putative hit of BDC2.5 TCR in I-Ag7 library] | 0.000742 | 0.000415 | 0.000612 | 0.000371 | 0.0007 | 0.000851 | 0.000576 | 0.000606 | – | – | – | – | – | –
5 | EKAHIPIWARMDAKK [top putative hit of BDC2.5 TCR in I-Ag7 library] | 0.001977 | 0.00122 | 0.003326 | 0.002646 | 0.002482 | 0.002979 | 0.003083 | 0.003642 | – | – | – | – | – | –
6 | AVRPLWVRME [top putative hit of BDC2.5 TCR in I-Ag7 library] | 0.000751 | 0.000649 | 0.001092 | 0.001062 | 0.001109 | 0.000835 | 0.001173 | 0.001182 | – | – | – | – | – | –
7 | SRLGAWVRME [top putative hit of BDC2.5 TCR in I-Ag7 library] | 0.000522 | 0.000175 | 0.000684 | 0.000306 | 0.000243 | 0.000632 | 0.000765 | 0.000784 | – | – | – | – | – | –
8 | SRLGLWVRMA [top putative hit of BDC2.5 TCR in I-Ag7 library] | 0.000692 | 0.000345 | 0.000603 | 0.000358 | 0.000683 | 0.000858 | 0.0006 | 0.000465 | – | – | – | – | – | –
9 | EKAHRPIWARMDAKK [top putative hit of BDC2.5 TCR in I-Ag7 library] | 0.001675 | 0.001085 | 0.002939 | 0.002157 | 0.001924 | 0.002825 | 0.003201 | 0.003092 | – | – | – | – | – | –
10 | RTRPLWVRME [top putative hit of BDC2.5 TCR in I-Ag7 library] | 0.000766 | 0.000703 | 0.00077 | 0.000734 | 0.001024 | 0.001078 | 0.001083 | 0.001303 | – | – | – | – | – | –
11 | PGAGDLQTLALNAARDP | – | – | – | – | – | – | – | – | – | – | 2.65% | 2.56% | 20.2% | 20.4%
12 | SRLGLWVRME [top putative hit of BDC2.5 TCR in I-Ag7 library] | 0.000716 | 0.000449 | 0.000874 | 0.000616 | 0.000562 | 0.000596 | 0.000875 | 0.000992 | – | – | – | – | – | –
13 | RRALQTLALNAARDP | – | – | – | – | – | – | – | – | – | – | 4.17% | 3.8% | 12.8% | 12.1%
14 | SRLGLWARME [top putative hit of BDC2.5 TCR in I-Ag7 library] | 0.00089 | 0.000594 | 0.000983 | 0.000723 | 0.000811 | 0.001313 | 0.001203 | 0.001063 | – | – | – | – | – | –
